Results as given in patent publication US20260174682A1, “GAMMA-AMINOBUTYRIC ACID DERIVATIVE COMPRISING POLYCYCLIC STRUCTURE, METHOD FOR PREPARING SAME, AND USE THEREOF” (ZHONGSHAN INSTITUTE FOR DRUG DISCOVERY, SIMM, CAS., priority 2022, published 2026).
Marks after values point to notes of the source that are not given here.

Experiments:
[1] = target: T1, human recombinant calcium ion channel Cav2.2/β3/α2δ-1 (Homo sapiens, UniProt P54289); experiment: In vitro binding to human recombinant calcium ion channel Cav2.2/β3/α2δ-1 ([3H]gabapentin competition); settings: inhibition of binding of 5 nM [3H]gabapentin, CHO cell membranes, 25° C., 120 min; read-out: IC50
T1 construct: expressed in transfected cells; host or cells: CHO cells (membranes)
Description: Example 28 In Vitro Binding of Compounds to Human Recombinant Calcium Ion Channel Cav2.2/β3/α2δ-1
There are four subtypes of the voltage-gated calcium ion channel α2δ subunit, α2δ-1, α2δ-2, α2δ-3 and α2δ-4, in which α2δ-1 is the subtype that mediates chronic neuropathic pain (Field, M. J. et al.; Proc. Natl. Acad. Sci. U.S.A. 2006, 103, 17537-17542). Therefore, the binding strength of a compound to α2δ-1 is a direct indicator for measuring an analgesic effect thereof on the chronic neuropathic pain (Calandre, E. P. et al.; Expert Rev. Neuroether. 2016, 16, 1263-1277).
The in vitro binding strength of the compound of the present application to human recombinant calcium ion channel Cav2.2/β3/α2δ-1 is basically operated according to a reported method (Gee, N. S. et al.; J. Biol. Chem. 1996, 271, 5768-5776; Marais, E. et al.; Mol. Pharmacol. 2001, 59, 1243-1248). CHO cells expressing the human recombinant calcium ion channel Cav2.2/β3/α2δ-1 were used in the test. After routine separation of cell membranes, 3 μg of the cell membranes were added into each well with a modified HEPES/KOH buffer solution (pH 7.4) as a solution of the test system. Then, 5 nM [^3H]gabapentin and the compound to be tested at 6 concentrations (3, 9, 27, 81, 243, and 729 nM) were added, and the test system was incubated at 25° C. for 120 min. Non-specific binding was obtained by replacing the compound to be tested in the above test system with […] gabapentin. After the incubation was completed, the cell membranes were collected by filtration and washed with 50 mM Tris-HCl (pH 7.4), and then the radioactivity of [^3H]gabapentin bound to the cell membranes was tested by a liquid scintillation technology. […] An inhibition rate of the compound of the present application on the binding of the [^3H]gabapentin to the human recombinant calcium ion channel Cav2.2/β3/α2δ-1 was calculated according to the following formula: […]
wherein • I is the radioactivity corresponding to that the compound to be tested and [^3H]gabapentin are simultaneously co-incubated with the human recombinant calcium ion channel Cav2.2/β3/α2δ-1, • I0 is the radioactivity corresponding to co-incubation of [^3H]gabapentin and the human recombinant calcium ion channel Cav2.2/β3/α2δ-1 without adding the compound to be tested into the incubation system, and • IU is the radioactivity corresponding to that 10 μM gabapentin and [^3H]gabapentin are simultaneously co-incubated with the human recombinant calcium ion channel Cav2.2/β3/α2δ-1.
The concentration of the compound to be tested that inhibits 50% of the binding of [^3H]gabapentin to the human recombinant calcium ion channel Cav2.2/β3/α2δ-1 is defined as IC50, and the IC50 is calculated by nonlinear least squares regression analysis using the above inhibition rate (MathIQ™, ID Business Solutions Ltd., UK).

[2] = tested on: Sprague Dawley (SD) rat spared nerve injury (SNI) model; experiment: Analgesic effect in rat spared nerve injury (SNI) chronic neuropathic pain model; format: in vivo; settings: SNI rats; for maximum possible effect (% MPE) / area under the mechanical pain threshold-time curve compared with the vehicle control group: oral gavage 30 mg/kg (calculated by free base); for maximum possible effect (% MPE) / maximum possible effect (MPE): from AUC of mechanical pain threshold-time curve to 24 h; for maximum possible effect (MPE): oral gavage 10 mg/kg (calculated by free base)
Experimental: Establishment of the SNI model: Surgery was performed according to an aseptic operation method, and various surgical instruments, including scalpels, tweezers, suture needles/threads, surgical cotton, etc., were disinfected before the surgery. Animals were anesthetized by intraperitoneal injection of a Zoletil™ 50 solution at 50 mg/kg and then placed in lateral decubitus positions. After hair in surgical areas of lower bodies of animals was shaved, the animals were disinfected alternately with iodophor and 75% alcohol. The skin was cut at upper edges of left hind limbs, muscles were bluntly separated to expose a sciatic nerve trunk and 3 branches thereof, i.e., a tibial nerve, a common peroneal nerve and a sural nerve. The tibial nerve and the common peroneal nerve were ligated and cut, and the sural nerve was preserved and maintained intact. After the surgery, wounds were sutured layer by layer, the animals were administered with 25% ampicillin (1 mL/kg) through intraperitoneal injection to prevent infection, and routine nursing was performed. In sham group, only the sciatic nerve and the branches thereof were exposed, the nerves were not ligated and cut, and other operations were the same as those in the model group. Detection of a mechanical pain threshold: A Von-frey test fiber was used to detect the mechanical pain threshold of the sole of an operative side of each animal on day 1, day 3 and day 7 after the surgery, respectively. An “up-and-down” method was used as a method of detecting the mechanical pain threshold at the stimulation intensity of 0.4, 0.6, 1, 2, 4, 6, 8, and 15 g. During the test, the test fiber was used to vertically stimulate the site, close to an outer side, in the sole center of the left hind paw of a rat for 6-8 seconds each time at an interval of 5 seconds. A pain response was shown as an obvious paw withdrawal, paw licking, or paw lifting behavior of the animals during each test. From day 11 after the surgery, the animals were placed in an experimental environment for adaptation, wherein the adaptation was performed continuously for 15 min per day for 3 days. On day 13, a basic value of mechanical pain hypersensitivity was detected after the adaptation was completed. The mechanical pain hypersensitivity was expressed by a 50% paw-withdrawal threshold (PWT) according to a calculation formula of 50% PWT (g)=10^xf+kδ, wherein xf is a log value of a fiber test force, k is a tabular value, and δ is an average spacing of the log value of the fiber test force.
Pharmacodynamic evaluation: According to basic threshold detection results on day 13 after the surgery, the animals in the model group without the mechanical pain hypersensitivity, that is, the PWT was greater than 4 g, were excluded, and the other successfully modeled animals were used for a formal test. On day 14 after the surgery, various compound to be tested were newly formulated. Pregabalin was directly dissolved with 0.9% sodium chloride at a dose of 30 mg/kg to obtain a solution at a desired concentration. (±)—I-7, (±)—I-3 and (±)—I-4 p-toluenesulfonate were also completely dissolved with a 0.9% sodium chloride solution at a dose of 30 mg/kg (calculated by free base). The successfully modeled animals were randomly divided into 5 groups with 8 animals in each group. In addition, 7 animals were selected in the sham group. […] The mechanical pain hypersensitivity response of the left hind paw was detected at 1 h, 2 h, 4 h, 6 h, 8 h, 10 h, and 24 h after the administration. Evaluation was performed by using a blind method, and a detection method was the same as above. An area under a mechanical pain threshold-time curve (AUC) was calculated using GraphPad Prism Version 8.0.1 software.

[3] = tested on: male SD rats; experiment: Acute toxicity test on rats; settings: oral gavage 300 mg/kg (calculated by free base)
Experimental: After adapting to the environment for one week, the SD rats were used in a preliminary acute toxicity test. The compounds were newly formulated on the day of the test. […] After being labeled and weighed, the animals were randomly grouped with 2-4 animals in each group. […] Clinical symptoms of each animal were observed and recorded at 0.5 hours, 1 hour, 2 hours, 4 hours, 6 hours and 24 hours after the administration, respectively. Clinical symptom codes were as follows: 0 no abnormality, 1 mild tremor, 2 unsteady gait, 3 prone position, 4 startle reflex, 5 difficult breathing, 6 righting reflex disappeared, 7 eyelid closure, 8 shortness of breath, and x animal death.

[4] = tested on: mouse 6-Hz psychomotor seizure model; experiment: Antiepileptic effect in mouse 6-Hz psychomotor seizure model; format: in vivo; settings: 6-Hz model, C57BL/6 mice, gavage, dose 200 mg/kg
Experimental: A negative vehicle control group, a positive drug control group (pregabalin and gabapentin) and a test group of the compounds of the present application were set. Male C57BL/6 mice with a body weight of 20±2 g were selected. […] After fasted for 12 h, the mice were administered the compounds of the present application or the control drugs, and then subjected to 6-Hz electrical stimulation to induce epilepsy seizure behaviors after a certain time interval (2 h for pregabalin, 1 h for gabapentin, 1 h for levetiracetam, and 3 h for the compounds of the present application). In an induction model, when the stimulation was performed with a Model 4100 stimulator (A-M Systems, the United States), rear necks of the mice were immobilized by hands on a feeding cage, a corneal electrode was moisten with normal saline and allowed to gently contact bilateral corneas of the mice, the electrical stimulator was trod by a foot to give the mice the electrical stimulation with a stimulation parameter of 6-Hz, a one-way square wave of 32 mA, a wave width of 0.2 ms and a stimulation duration of 3 sec, and timing was performed with a stopwatch during the stimulation. After the electrical stimulation was completed, the mice with the seizure behaviors lasting for less than 7 sec were regarded as being protected by the drugs, and the mice with the seizure behaviors lasting for more than 7 sec were regarded as being not protected from the epilepsy by the drugs. Response situations of the animals were observed and recorded, and obtained data were counted to calculate protection rates of the compounds.
Statistical method: The protection rates of different administration groups were separately compared with that of the vehicle control group to carry out a Fisher's exact test.

T1 sequence (P54289 25-956 limits assumed): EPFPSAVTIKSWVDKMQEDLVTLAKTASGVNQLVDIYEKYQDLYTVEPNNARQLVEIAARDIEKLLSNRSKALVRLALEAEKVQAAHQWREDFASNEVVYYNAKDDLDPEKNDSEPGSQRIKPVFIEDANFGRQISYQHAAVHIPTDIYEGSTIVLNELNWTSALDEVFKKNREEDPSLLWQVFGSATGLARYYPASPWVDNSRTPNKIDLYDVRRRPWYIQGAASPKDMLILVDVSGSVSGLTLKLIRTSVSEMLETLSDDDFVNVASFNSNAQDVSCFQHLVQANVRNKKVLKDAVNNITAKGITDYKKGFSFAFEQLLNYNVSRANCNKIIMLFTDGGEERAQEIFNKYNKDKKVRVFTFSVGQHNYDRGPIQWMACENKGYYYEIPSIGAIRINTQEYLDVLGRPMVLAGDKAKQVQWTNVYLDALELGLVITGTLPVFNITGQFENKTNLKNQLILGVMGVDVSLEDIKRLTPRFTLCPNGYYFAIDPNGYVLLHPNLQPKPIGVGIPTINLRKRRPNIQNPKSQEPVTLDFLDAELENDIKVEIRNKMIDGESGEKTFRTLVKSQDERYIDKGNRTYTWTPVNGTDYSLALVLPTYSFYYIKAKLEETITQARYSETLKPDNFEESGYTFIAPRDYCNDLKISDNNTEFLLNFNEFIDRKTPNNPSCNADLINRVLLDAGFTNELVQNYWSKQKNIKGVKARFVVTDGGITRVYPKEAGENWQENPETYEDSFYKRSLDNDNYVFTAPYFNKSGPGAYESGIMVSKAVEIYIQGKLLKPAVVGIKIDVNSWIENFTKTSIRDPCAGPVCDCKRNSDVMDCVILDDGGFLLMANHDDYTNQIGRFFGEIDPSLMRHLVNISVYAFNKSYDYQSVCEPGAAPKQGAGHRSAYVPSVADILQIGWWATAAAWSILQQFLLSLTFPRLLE
T1 sequence (P54289 957-1103 partner limits assumed): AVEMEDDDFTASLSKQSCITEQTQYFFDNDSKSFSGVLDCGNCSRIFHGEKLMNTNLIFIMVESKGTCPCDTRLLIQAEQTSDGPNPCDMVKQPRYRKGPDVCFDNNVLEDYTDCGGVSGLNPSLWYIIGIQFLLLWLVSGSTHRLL
T1 sequence (Q00975 whole entry partner): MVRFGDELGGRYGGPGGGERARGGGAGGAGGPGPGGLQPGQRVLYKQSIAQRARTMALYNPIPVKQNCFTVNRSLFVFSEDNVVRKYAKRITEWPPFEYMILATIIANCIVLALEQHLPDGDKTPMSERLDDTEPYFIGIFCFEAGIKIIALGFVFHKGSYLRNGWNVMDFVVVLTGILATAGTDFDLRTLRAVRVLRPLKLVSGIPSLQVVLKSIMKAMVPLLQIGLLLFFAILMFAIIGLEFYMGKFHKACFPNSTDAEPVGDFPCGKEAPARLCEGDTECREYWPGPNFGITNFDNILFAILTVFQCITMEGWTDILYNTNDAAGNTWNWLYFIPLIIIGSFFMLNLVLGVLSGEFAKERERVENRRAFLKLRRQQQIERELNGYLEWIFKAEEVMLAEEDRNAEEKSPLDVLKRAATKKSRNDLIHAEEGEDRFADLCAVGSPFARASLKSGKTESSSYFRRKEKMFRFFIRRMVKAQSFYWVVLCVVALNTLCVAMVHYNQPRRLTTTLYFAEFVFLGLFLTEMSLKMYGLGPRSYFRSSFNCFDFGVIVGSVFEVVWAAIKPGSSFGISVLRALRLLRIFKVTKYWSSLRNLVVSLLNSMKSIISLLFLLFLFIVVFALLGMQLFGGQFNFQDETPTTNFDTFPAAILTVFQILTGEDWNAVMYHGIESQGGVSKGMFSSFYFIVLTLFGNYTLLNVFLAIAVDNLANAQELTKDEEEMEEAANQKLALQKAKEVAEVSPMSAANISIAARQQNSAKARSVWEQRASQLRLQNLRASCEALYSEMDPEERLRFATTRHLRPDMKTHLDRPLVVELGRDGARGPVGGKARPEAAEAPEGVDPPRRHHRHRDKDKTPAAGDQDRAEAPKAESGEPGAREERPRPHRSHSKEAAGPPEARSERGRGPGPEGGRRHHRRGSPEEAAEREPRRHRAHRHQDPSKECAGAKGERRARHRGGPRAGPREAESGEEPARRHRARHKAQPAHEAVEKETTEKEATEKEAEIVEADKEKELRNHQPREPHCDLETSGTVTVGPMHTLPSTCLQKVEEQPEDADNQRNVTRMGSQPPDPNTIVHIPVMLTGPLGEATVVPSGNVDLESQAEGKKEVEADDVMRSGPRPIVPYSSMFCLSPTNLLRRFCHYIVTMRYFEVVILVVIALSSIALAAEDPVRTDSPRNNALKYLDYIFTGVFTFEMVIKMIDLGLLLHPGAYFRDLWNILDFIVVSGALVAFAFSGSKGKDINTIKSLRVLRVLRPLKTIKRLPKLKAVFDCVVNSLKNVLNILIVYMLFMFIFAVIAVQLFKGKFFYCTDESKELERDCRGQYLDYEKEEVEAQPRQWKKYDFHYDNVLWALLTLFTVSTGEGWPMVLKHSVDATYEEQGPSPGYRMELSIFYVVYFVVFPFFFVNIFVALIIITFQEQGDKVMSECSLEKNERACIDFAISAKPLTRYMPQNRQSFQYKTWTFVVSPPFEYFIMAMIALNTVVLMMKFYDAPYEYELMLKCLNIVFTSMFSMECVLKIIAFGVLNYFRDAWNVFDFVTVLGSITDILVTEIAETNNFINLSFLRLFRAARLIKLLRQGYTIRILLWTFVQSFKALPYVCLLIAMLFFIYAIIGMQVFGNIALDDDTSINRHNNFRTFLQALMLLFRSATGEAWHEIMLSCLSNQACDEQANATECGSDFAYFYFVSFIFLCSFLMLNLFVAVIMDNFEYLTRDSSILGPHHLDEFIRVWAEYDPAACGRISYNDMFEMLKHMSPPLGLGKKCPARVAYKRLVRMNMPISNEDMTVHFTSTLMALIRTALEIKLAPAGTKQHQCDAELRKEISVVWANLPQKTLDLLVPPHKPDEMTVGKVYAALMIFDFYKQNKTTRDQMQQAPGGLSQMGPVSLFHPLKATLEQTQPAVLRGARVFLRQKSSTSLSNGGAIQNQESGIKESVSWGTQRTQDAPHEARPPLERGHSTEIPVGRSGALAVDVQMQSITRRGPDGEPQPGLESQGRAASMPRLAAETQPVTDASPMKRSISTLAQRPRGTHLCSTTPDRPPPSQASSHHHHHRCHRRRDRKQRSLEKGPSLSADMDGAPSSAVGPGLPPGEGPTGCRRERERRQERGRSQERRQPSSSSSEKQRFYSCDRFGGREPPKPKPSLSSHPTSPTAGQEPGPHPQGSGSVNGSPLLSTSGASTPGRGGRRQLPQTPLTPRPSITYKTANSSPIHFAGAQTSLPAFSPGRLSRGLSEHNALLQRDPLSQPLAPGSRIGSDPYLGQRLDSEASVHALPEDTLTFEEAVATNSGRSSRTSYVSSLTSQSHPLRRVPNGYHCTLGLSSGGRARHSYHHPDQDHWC
T1 sequence (P54284 whole entry partner): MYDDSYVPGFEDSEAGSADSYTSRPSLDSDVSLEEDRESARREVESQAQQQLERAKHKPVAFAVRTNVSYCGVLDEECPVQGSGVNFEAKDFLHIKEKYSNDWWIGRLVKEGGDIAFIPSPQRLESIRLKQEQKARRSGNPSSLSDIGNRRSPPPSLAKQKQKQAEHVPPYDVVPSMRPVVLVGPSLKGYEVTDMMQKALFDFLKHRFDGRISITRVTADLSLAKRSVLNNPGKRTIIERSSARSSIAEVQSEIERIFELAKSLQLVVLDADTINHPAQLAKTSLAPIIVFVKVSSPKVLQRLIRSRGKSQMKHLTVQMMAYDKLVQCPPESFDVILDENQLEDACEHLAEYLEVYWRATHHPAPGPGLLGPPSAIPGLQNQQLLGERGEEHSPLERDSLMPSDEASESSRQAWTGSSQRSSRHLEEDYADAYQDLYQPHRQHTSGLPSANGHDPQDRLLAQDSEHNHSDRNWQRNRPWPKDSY

Row | Compound | IC50 [1] | other results
1 | NCC1(CC(=O)O)CC2C3CCC(C3)C21 (racemic) [(±)-I-1] | > 729 nM | –
2 | NCC1(CC(=O)O)C[C@@H]2C1C1C=C[C@H]2C1 (mixture of isomers) [(±)-I-2] | 470 nM | –
3 | Cc1ccc(S(=O)(=O)O)cc1.NCC1(CC(=O)O)CC2C3C=CC(C3)C21 (racemic) [(±)-I-4 p-toluenesulfonate] | – | area under the mechanical pain threshold-time curve compared with the vehicle control group [2]: significantly improved; maximum possible effect (% MPE) [2]: 95.95%
4 | NCC1(CC(=O)O)CC2C3C=CC(CC3)C21 (racemic) [(±)-I-6 p-toluenesulfonate] | 300 nM | –
5 | NCC1(CC(=O)O)CC2C3C[C@H]([C@H]4C[C@H]34)[C@@H]21 (mixture of isomers) [(±)-I-7] | 70 nM | area under the mechanical pain threshold-time curve compared with the vehicle control group [2]: significantly improved; maximum possible effect (% MPE) [2]: 73.63%; animal death [3]: no animals are dead; Observation of clinical symptoms 0.5 h ([3]; per animal): 0; Observation of clinical symptoms 2 h ([3]; per animal): 3; Observation of clinical symptoms 4 h ([3]; per animal): 0; Observation of clinical symptoms 6 h ([3]; per animal): 0; Observation of clinical symptoms 24 h ([3]; per animal): 0; Observation of clinical symptoms 1 h ([3]; per animal, 300 mg/kg): 3
6 | NCC1(CC(=O)O)CC2C3C=CC(C3)C21 (racemic) [(±)-I-11 p-toluenesulfonate] | > 729 nM | –
7 | NCC1(CC(=O)O)CC2C3CCC(C3)C21 (racemic) [(±)-I-12] | > 729 nM | –
8 | CC1C2CC[C@@H]1[C@H]1C2CC1(CN)CC(=O)O (mixture of isomers) [(±)-I-16] | 477 nM | –
9 | Cc1ccc(S(=O)(=O)O)cc1.NCC1(CC(=O)O)CC2C3CCC(C3)C21 (single isomer, unassigned; (-)) [(−)-I-3 p-toluenesulfonate] | > 243 nM | maximum possible effect (MPE) [2]: 30.22%
10 | NCC1(CC(=O)O)CC2C3C=CC(C3)C21 (single isomer, unassigned; (-)) [(−)-I-4 p-toluenesulfonate] | > 243 nM | maximum possible effect (MPE) [2]: 18.53%
11 | CC[C@@H](C(N)=O)N1CCCC1=O [Levetiracetam] | – | Number of animals with clonic seizures/total number [4]: 3/11**; Protection rate (%) [4]: 72.7 *** %

Continued, in another order:

Row | IC50 [1] | Compound | other results
12 | 15.2 nM | NCC1(CC(=O)O)CC2C3CC[C@@H](C3)[C@@H]21 (mixture of isomers) [(±)-I-3] | maximum possible effect (% MPE) [2]: 44.80%
13 | 450 nM | NCC1(CC(=O)O)CC2C3CCC(CC3)C21 (racemic) [(±)-I-5] | –
14 | > 729 nM | CC1=C(C)C2(C)C3C(CC3(CN)CC(=O)O)C1(C)C2C (racemic) [(±)-I-8] | –
15 | > 729 nM | NCC1(CC(=O)O)CC2C1C1C=CC2C12CC2 (racemic) [(±)-I-9 p-toluenesulfonate] | –
16 | > 729 nM | NCC1(CC(=O)O)CC2C1C1CCC2C12CC2 (racemic) [(±)-I-10] | –
17 | 600 nM | CC1(C)C2CC[C@@H]1[C@H]1C2CC1(CN)CC(=O)O (mixture of isomers) [(±)-I-14] | –
18 | 580 nM | CC1(C)C2C=CC1C1C2CC1(CN)CC(=O)O (racemic) [(±)-I-15 p-toluenesulfonate] | –
19 | 453 nM | CC1C2C=CC1C1C2CC1(CN)CC(=O)O (racemic) [(±)-I-17 p-toluenesulfonate] | –
20 | > 729 nM | CC1=C(C)C2(C)CC1(C)C1CC(CN)(CC(=O)O)C12 (racemic) [(±)-I-18] | –
21 | > 729 nM | CC1=C(C)C2(C)C3C(CC3(CN)CC(=O)O)C1(C)C2(C)C (racemic) [(±)-I-19] | –
